Source: patent US9682928B2 (NeuroPro Therapeutics, Inc., priority 2009, dated 2017)
“Also recorded” adds a separate entry of the source.

What was measured:
rats = assay: Fear potentiated startle (FPS) test in rats; type: in vivo, rat; conditions: i.v.; furosemide 100 mg/kg, bumetanide 70 mg/kg
Description: FPS is a commonly used assessment of therapeutic value of anxiolytic compounds in the rat. Rats received a 30 min period of habituation to the FPS apparatus. 24-hr later baseline startle amplitudes were collected. The rats will be divided into two matched groups based on baseline startle amplitudes. Following baseline startle amplitude collection 20 light/shock pairings were delivered on 2 sessions over 2 consecutive days (i.e., 10 light/shock pairings per day). On the final day, one group of rats received an injection (i.v.) of a bumetanide analog and the other group received vehicle only. Immediately following injections, startle amplitudes were assessed during startle alone trials and startle plus fear (light followed by startle) trials. Fear potentiated startle (light+startle amplitudes minus startle alone amplitudes) was compared between the treatment groups.
Animals were trained and tested in four identical stabilimeter devices (Med-Associates). Briefly, each rat was placed in a small Plexiglas cylinder. The floor of each stabilimeter consists of four 6-mm-diameter stainless steel bars spaced 18 mm apart through which shock can be delivered. Cylinder movements result in displacement of an accelerometer where the resultant voltage is proportional to the velocity of the cage displacement. Startle amplitude is defined as the maximum accelerometer voltage that occurs during the first 0.25 sec after the startle stimulus is delivered. The analog output of the accelerometer is amplified, digitized on a scale of 0-4096 units and stored on a microcomputer. Each stabilimeter is enclosed in a ventilated, light-, and sound-attenuating box. All sound level measurements were made with a Precision Sound Level Meter. The noise of a ventilating fan attached to a sidewall of each wooden box produces an overall background noise level of 64 dB. The startle stimulus is a 50 ms burst of white noise (5 ms rise-decay time) generated by a white noise generator. The visual conditioned stimulus used was illumination of a light bulb adjacent to the white noise source. The unconditioned stimulus was a 0.6 mA foot shock with duration of 0.5 sec, generated by four constant-current shockers located outside the chamber. The presentation and sequencing of all stimuli were under the control of the microcomputer.
FPS procedures consisted of 5 days of testing; during days 1 and 2 baseline startle responses were collected, days 3 and 4 light/shock pairings were delivered, day 5-testing for fear potentiated startle was conducted.
Matching. On the first two days all rats were placed in the Plexiglas cylinders and 3 min later presented with 30 startle stimuli at a 30 sec interstimulus interval. An intensity of 105 dB was used. […]

[1] = molecular target: T1, α6β3γ2 GABAA receptor isoform (Homo sapiens, UniProt P18507+P28472+Q16445); assay: Whole-cell patch clamp, transfected HEK-293T cells; type: cell-based, rat or human
T1 construct: expressed in transfected cells; host or cells: HEK-293T, transient transfection
Description: (§1) The addition of GABA to […] activates the recombinant expressed GABAA receptors, creating an ion movement through the ion channel in the GABAA receptor. The electrical current generated by the movement of chloride ions into the cells can be quantified.
(§2) HEK-293T cells were transiently transfected with rat or human GABAA receptor subunits. Whole-cell patch clamp recording was performed at −50 mV unless otherwise indicated. Test compounds was diluted from a freshly made stock in DMSO, GABA was prepared from a frozen stock. For each experiment GABA or GABA+a test compound was applied for 5 seconds, and the electrical current generated by the movement of chloride ions into the cells was measured and recorded as a trace of current versus time.
(§3) Compounds described herein (e.g., NTP-2014) were tested at high and low GABA concentrations against multiple GABAA receptor isoforms (e.g., α1β3γ2, α2β3 γ2, α3β3γ2, α3β3γ2, α4β3γ2, α5β3γ2, α6β3γ2). […] NTP-2014 inhibits the currents in the parasynaptic α4 GABAA receptor isoform in GABAergic interneurons. […]

[2] = molecular target: T2, α3β3γ2 GABAA receptor isoform (Homo sapiens, UniProt P18507+P28472+P34903); assay: Whole-cell patch clamp, transfected HEK-293T cells; type: cell-based, rat or human; conditions: 10 μM NTP-2014; 1 μM and 100 μM GABA
T2 construct: expressed in transfected cells; host or cells: HEK-293T, transient transfection
Description: as §1, §2, §3

[3] = molecular target: T3, α2β3γ2 GABAA receptor isoform (Homo sapiens, UniProt P18507+P28472+P47869); assay: Whole-cell patch clamp, transfected HEK-293T cells; type: cell-based, rat or human; conditions: 10 μM NTP-2014; 1 μM and 100 μM GABA
T3 construct: expressed in transfected cells; host or cells: HEK-293T, transient transfection
Description: as §1, §2, §3

[4] = molecular target: T4, α5β3γ2 GABAA receptor isoform (Homo sapiens, UniProt P18507+P28472+P31644); assay: Whole-cell patch clamp, transfected HEK-293T cells; type: cell-based, rat or human; conditions: 10 μM NTP-2014; 1 μM and 100 μM GABA
T4 construct: expressed in transfected cells; host or cells: HEK-293T, transient transfection
Description: as §1, §2, §3

[5] = molecular target: T5, α1β3γ2 GABAA receptor isoform (Homo sapiens, UniProt P14867+P18507+P28472); assay: Whole-cell patch clamp, transfected HEK-293T cells; type: cell-based, rat or human; conditions: 10 μM NTP-2014
T5 construct: expressed in transfected cells; host or cells: HEK-293T, transient transfection
Description: as §1, §2, §3

T1 sequence (Q16445 20-453): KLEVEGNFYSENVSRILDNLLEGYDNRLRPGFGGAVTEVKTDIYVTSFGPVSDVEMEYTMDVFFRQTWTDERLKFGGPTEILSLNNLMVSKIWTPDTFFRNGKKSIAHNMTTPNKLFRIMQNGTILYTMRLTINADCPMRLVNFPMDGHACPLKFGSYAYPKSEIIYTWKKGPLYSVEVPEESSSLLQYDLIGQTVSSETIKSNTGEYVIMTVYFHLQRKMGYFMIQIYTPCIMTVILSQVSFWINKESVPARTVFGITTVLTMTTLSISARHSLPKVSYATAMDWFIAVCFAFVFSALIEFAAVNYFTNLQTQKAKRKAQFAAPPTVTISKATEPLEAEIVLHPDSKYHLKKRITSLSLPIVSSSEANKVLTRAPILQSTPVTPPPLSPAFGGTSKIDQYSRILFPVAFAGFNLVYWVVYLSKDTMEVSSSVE
T1 sequence (P28472 26-473): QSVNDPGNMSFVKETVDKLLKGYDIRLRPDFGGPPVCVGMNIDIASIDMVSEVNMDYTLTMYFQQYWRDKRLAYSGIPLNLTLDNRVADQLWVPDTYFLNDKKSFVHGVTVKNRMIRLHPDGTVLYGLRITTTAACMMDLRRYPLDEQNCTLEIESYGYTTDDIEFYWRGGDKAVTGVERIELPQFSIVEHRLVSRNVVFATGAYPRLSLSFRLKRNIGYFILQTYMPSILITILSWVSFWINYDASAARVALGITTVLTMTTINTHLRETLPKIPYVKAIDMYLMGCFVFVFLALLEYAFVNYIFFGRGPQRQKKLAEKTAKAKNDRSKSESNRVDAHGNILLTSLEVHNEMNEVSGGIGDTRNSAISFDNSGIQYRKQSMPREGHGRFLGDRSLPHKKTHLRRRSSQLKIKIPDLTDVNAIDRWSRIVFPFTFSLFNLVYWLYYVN
T1 sequence (P18507 40-475): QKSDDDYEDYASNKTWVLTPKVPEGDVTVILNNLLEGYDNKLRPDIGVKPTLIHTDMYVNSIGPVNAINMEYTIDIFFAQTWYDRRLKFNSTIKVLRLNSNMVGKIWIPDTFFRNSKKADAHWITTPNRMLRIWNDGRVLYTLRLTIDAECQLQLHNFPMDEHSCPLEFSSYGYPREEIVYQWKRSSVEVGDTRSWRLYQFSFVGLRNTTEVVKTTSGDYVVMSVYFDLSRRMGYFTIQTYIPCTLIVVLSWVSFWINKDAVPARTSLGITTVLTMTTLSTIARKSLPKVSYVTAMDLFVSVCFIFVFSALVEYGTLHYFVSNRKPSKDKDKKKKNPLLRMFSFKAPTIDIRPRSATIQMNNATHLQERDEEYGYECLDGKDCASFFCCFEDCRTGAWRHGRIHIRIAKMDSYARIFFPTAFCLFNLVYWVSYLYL
T4 sequence (P31644 32-462): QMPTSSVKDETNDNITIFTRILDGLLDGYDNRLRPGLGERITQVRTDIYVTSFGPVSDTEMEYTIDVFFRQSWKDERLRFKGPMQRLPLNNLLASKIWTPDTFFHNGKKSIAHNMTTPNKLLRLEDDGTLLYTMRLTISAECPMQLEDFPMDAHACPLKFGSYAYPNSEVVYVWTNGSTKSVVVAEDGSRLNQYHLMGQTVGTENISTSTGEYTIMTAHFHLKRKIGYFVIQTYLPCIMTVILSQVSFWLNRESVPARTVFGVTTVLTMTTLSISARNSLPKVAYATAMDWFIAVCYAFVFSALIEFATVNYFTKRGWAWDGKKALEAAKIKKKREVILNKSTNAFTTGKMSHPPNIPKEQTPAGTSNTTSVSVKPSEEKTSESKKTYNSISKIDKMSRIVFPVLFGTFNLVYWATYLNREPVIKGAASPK
T4 sequence (P28472 26-473): as the sequence (P28472 26-473) above
T4 sequence (P18507 40-475): as the sequence (P18507 40-475) above
T3 sequence (P47869 29-451): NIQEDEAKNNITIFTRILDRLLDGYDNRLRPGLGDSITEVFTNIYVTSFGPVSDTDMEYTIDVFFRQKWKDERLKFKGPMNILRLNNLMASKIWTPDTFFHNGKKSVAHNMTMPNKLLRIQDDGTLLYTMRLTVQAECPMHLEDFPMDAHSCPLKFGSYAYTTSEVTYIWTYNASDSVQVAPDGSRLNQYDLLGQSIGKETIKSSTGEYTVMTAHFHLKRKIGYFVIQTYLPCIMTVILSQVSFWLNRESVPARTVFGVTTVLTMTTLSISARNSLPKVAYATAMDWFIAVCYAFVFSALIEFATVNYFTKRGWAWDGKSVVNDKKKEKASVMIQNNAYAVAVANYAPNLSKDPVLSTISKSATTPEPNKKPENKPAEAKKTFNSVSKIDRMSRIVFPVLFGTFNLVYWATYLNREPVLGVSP
T3 sequence (P28472 26-473): as the sequence (P28472 26-473) above
T3 sequence (P18507 40-475): as the sequence (P18507 40-475) above
T2 sequence (P34903 29-492): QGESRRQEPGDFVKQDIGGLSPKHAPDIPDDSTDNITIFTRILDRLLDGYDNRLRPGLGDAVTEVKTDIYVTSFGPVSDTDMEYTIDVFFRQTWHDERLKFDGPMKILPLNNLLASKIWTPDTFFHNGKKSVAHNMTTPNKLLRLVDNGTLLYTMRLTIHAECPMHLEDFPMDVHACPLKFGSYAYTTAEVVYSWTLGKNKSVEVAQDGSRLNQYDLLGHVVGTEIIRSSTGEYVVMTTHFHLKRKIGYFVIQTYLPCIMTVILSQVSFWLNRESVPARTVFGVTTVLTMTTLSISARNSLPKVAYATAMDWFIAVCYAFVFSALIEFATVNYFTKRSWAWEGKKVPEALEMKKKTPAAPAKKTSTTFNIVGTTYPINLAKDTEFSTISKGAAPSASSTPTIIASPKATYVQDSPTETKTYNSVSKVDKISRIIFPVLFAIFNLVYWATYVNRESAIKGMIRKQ
T2 sequence (P28472 26-473): as the sequence (P28472 26-473) above
T2 sequence (P18507 40-475): as the sequence (P18507 40-475) above
T5 sequence (P14867 28-456): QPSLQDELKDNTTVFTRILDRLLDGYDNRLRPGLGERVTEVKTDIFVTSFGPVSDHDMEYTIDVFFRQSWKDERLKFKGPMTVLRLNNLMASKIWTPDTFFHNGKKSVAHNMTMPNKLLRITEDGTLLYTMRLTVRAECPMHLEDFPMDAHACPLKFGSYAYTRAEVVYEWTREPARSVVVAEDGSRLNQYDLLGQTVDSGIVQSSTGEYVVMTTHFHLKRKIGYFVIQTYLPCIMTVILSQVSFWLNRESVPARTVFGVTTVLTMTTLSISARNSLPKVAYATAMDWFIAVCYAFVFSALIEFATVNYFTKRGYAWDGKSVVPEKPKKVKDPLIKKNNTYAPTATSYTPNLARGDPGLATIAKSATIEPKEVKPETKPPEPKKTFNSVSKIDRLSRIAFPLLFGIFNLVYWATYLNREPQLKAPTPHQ
T5 sequence (P28472 26-473): as the sequence (P28472 26-473) above
T5 sequence (P18507 40-475): as the sequence (P18507 40-475) above

SMILES	Difference score on the test day vs vehicle alone (rats)	Difference score one week after treatment vs vehicle alone (rats)	Effect on currents, α6 containing receptors ([1]; 0.1, 1, 10 μM GABA)	EC50 ([1]; FIG. 41C, read-out: EC50 in α6 containing GABAA receptor isoforms) [µM]	IC50 ([1]; read-out: IC50, receptors containing the α6 subunit) [µM]	Effect on current, α3 containing isoform [2]	Effect on current, α2 containing isoform [3]	Effect on current, α5 containing isoform [4]	Effect on current, α1β3γ2 GABAA receptor isoform [5]
CCCCNc1cc(C(=O)O)cc(S(N)(=O)=O)c1Oc1ccccc1 [Bumetanide, reference compound]	statistically significantly lower difference score	higher difference score							
CCCCN(CCCC)c1cc(C(=O)O)cc(S(N)(=O)=O)c1Oc1ccccc1 [NTP-2014, 3-Aminosulfonyl-5-N,N-dibutylamino-4-phenoxybenzoic acid]			inhibited by NTP-2014 at higher GABA concentrations, but unaffected at lower GABA concentrations	20.2	10 to 30	slowed the decay rate; also recorded: inhibited	slowed the decay rate; also recorded: inhibited	slowed the decay rate; also recorded: inhibited	no significant activation; also recorded: amplitude of the current was not increased
